Square brackets hold non-standard residues; d marks the D form. Peptide text beside a SMILES is read from it. * marks the point of attachment. Dolaproine = CO[C@@H]([C@@H]1CCCN1)[C@@H](C)C(=O)O; Dil = CC[C@H](C)[C@H](NC)[C@@H](CC(=O)O)OC; X1 = C[C@@H](N*)[C@@H](O)c1ccccc1; NMeV = CN[C@H](C(=O)O)C(C)C

Assay [1] deals with NCI-N87, SW1990, HAY, YOU, OVCAR3 and A549 cells. Kind of assay: Free cytotoxin cytotoxicity, crystal violet viability. Type of assay: cell-based, human. To be noted: 72 hours, average over cell lines. An excerpt:
FIGS. 2A-C. Cytotoxic payloads and linkers examined for developing reformatted MES-1 antibody for optimal killing of immunoproficient and immunosuppressed mesothelin expressing cancer cells. FIG. 2A provides chemical structures of various types of cytotoxic payloads (i.e., microtubule inhibitors, DNA alkylating agents, topoisomerase inhibitors, and protein kinase inhibitors, see, e.g., Yaghoubi S, et al. J Cell Physiol 235:31-64, 2019; Wang R E, et al. J Am Chem Soc 137:3229-3232, 2015) tested against immunosuppressive and immunoproficient mesothelin expressing target cells. FIG. 2B provides chemical structures of various enzymatic and non-enzymatic cleavable and non-cleavable linkers tested to generate MES-ADCs against immunosuppressive and immune-proficient mesothelin expressing target cells. FIG. 2C provides an overview of the cytotoxicity of potential ADC payloads against mesothelin expressing cancer cells or control cell lines (Table 1). Briefly, 96-well tissue culture plates were seeded with 5,000 cells/well of mesothelin-positive NCI-N87 (CA125^+ gastric cancer), SW1990 (CA125^+ pancreatic cancer), HAY (CA125^+ mesothelioma), YOU (CA125^− mesothelioma), OVCAR3 (CA125^+ ovarian cancer) and A549 (mesothelin negative lung cancer) cells in 100 μLs of RPMI plus 7.5% heat inactivated fetal bovine serum (FBS), and 0.0001 to 500 ng/mL of cytotoxin or negative control. Cultures were incubated for 72 hours at 37° C. in 5% CO2 then quantified for viability using crystal violet staining. Dried stained wells were solubilized using 1% SDS in phosphate buffer saline (PBS) and quantified by colorimetric densitometry on a Varioskan™ multi-well plate reader at 570 nm. […] Experiments represent a minimum of triplicate wells. Statistical analysis was done using a two-sided Student' T-test.
To identify best candidates to meet this criteria, we first tested different classes of cytotoxins including DNA alkylating agents, microtubule inhibitors, and topoisomerase inhibitors (FIG. 2A). […]

For assay [2], the system named is mesothelioma. Conditions: patients with elevated CA125 vs low CA125; cited from earlier work.
The subject of assay [3] is follicular lymphoma. Conditions: CA125 in normal range vs above normal range; cited from earlier work.

`CC[C@H](C)[C@@H]([C@@H](CC(=O)N1CCC[C@H]1[C@H](OC)[C@@H](C)C(=O)N[C@H](C)[C@@H](O)c1ccccc1)OC)N(C)C(=O)[C@@H](NC(=O)[C@@H](NC)C(C)C)C(C)C` [MMAE, Monomethyl Auristatin E] (H-[NMeV]V[Dil][Dolaproine]-X1): the “average EC50” value in assay [1] is on record as 1.39 ng/mL.
Same read-out and setting: under `COc1cccc2c1C(=O)c1c(O)c3c(c(O)c1C2=O)C[C@@](O)(C(=O)CO)C[C@@H]3O[C@H]1C[C@H]2[C@H](O[C@@H]3[C@@H](OC)OCCN32)[C@H](C)O1` [PNU159682, reference compound] stands 0.014 ng/mL; under `CCc1c2c(nc3ccc(O)cc13)-c1cc3c(c(=O)n1C2)COC(=O)[C@]3(O)CC` [SN38], 2.44 ng/mL.
Regarding amatuximab: anti-mesothelin antibody, the “PFS and OS outcomes” value in assay [2] is “worse progression-free survival (PFS) and overall survival (OS) outcomes”.
For “rituximab: clinically used rituximab antibody”, in assay [3], the “improvement in 5-year progression-free survival” value was 31.4%.

Values taken from patent US20230398232A1, “Composition and Use of Alternatively Formatted Anti-Mesothelin Antibodies for the Treatment of Cancer” (Navrogen, Inc., priority 2020, published 2023).
